Our source for the TGI and GI50 values is PubChem BioAssay (NCI).

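Exposure lasted 48 hours, with cells grown in 96-well plates and compounds tested at five concentrations. GI50 = concentration required for 50% inhibition of growth. TGI denotes the concentration required for complete inhibition of growth.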 Some results are limits rather than exact numbers.

Common to all, as to assay: DTP human tumour cell line panel, 48 h
Assay [1] relates to ACHN renal.
Assay [2] has as its system CCRF-CEM leukemia.
In assay [3] the test system is LOX IMVI melanoma.
The test system of assay [4] is NCI-H23 lung.
Assay [5] deals with NCI-H460 lung.
The subject of assay [6] is NCI/ADR-RES ovarian.
In assay [7] the test system is SF-268 CNS.
The test system of assay [8] is SF-539 CNS.
The test system of assay [9] is SK-MEL-28 melanoma.
Assay [10] concerns SW-620 colon.

One may read the TGI as the concentration giving total growth inhibition. Take `N#CC(C#N)=NNc1ccc2cn[nH]c2c1`: the TGI is more than 100 µM in [1]; 55 µM in assay [2]; more than 100 µM in assay [3]; 50 µM in assay [4]; more than 100 µM in [5]; more than 100 µM in assay [6]. Also, the TGI in assay [7], in [8], in [9] and in assay [10] was more than 100 µM throughout.

By GI50 is commonly meant the concentration giving 50% growth inhibition. `COc1cc(-c2cc3ncccc3c3nc(OCCN(C)C)c4cccnc4c23)cc(OC)c1OC`: the GI50 in assay [1] was 281 nM; in assay [2], 714 nM; in assay [3], 275 nM; in [4] it was 619 nM; in assay [5] it was 349 nM; in assay [6], 383 nM. Further, the GI50 in assay [7] is 637 nM; in assay [8], 741 nM; in assay [9], 639 nM; in assay [10] it was 324 nM. The concentration for total growth inhibition (TGI) amounted to 1.54 µM in assay [1]; 8.09 µM in assay [2]; 1.26 µM in assay [3]; 3.31 µM in assay [4]; 1.88 µM in assay [5]; 2.1 µM in assay [6]. For the same molecule, the concentration for total growth inhibition (TGI) in assay [7] was found to be 11 µM; in [8], 3.39 µM; in assay [9], 2.42 µM; in assay [10], 15.2 µM.

On to `O=C(Cn1c(C(=O)c2ccc(Cl)cc2)nc(-c2ccc(Cl)cc2)c1-c1ccc(Cl)cc1)c1ccccc1`, for which the GI50 in assay [1], in [2], in [3], in assay [4], in assay [5] and in assay [6] was more than 100000 nM in each case. The GI50 in [7], in [8], in assay [9] and in assay [10] was more than 100000 nM in each case. The TGI in assay [1], in assay [2], in [3], in assay [4], in [5] and in [6] was more than 100 µM throughout. Besides, the TGI in assay [7], in assay [8], in assay [9] and in assay [10] was more than 100 µM each time.

Regarding `ClCCCSSCCCCl`, the TGI was more than 100 µM in [1]; more than 43.9 µM in [2]; more than 81.9 µM in assay [3]; more than 100 µM in assay [4]; more than 100 µM in assay [5]; more than 78 µM in assay [6]. Also, the concentration for total growth inhibition (TGI) in assay [7] was more than 100 µM; in [8] it was 48.8 µM; in assay [9], more than 100 µM; in assay [10], more than 100 µM.

On to `CNC(=O)c1nn(C)c2c1C(C)(C)Cc1cnc(Nc3cccc(N4CCN(C)CC4)c3)nc1-2`, for which the GI50 in [1] is 89.6 nM; in assay [2] it was 382 nM; in assay [3] it was 178 nM; in assay [4], 372 nM; in [5], 303 nM; in assay [6] it was 2100 nM. The GI50 in assay [7] is 931 nM; in [8], 406 nM; in assay [9], 1320 nM; in assay [10], 287 nM. For the same molecule, the TGI in [1] was more than 58.2 µM; in assay [2] it was more than 26.8 µM; in [3], 2.53 µM; in assay [4], 9.81 µM; in assay [5] it was 11.8 µM; in assay [6], more than 48.8 µM. Also, the TGI in assay [7] came to 9.36 µM; in [8], 3.06 µM; in assay [9], 13.1 µM; in assay [10] it was 22.4 µM.

Turning to `Cc1ccc(C)c2c1C(=O)N(c1ccc(F)cc1F)C2=O`, the GI50 in [1], in [2], in [3], in [4], in assay [5] and in [6] was more than 100000 nM each time. Also, the GI50 in [7], in [8], in [9] and in [10] was more than 100000 nM throughout. In addition, the TGI in assay [1], in assay [2], in assay [3], in [4], in assay [5] and in assay [6] was more than 100 µM throughout. Besides, the TGI in assay [7], in [8], in assay [9] and in assay [10] was more than 100 µM in each case.
